Experimental data: ChEMBL document CHEMBL4145665, “Structure-Activity Relationship of Novel and Selective Biaryl-Chroman GPR40 AgoPAMs” (ACS Med Chem Lett, 2018)

Legend:
[1] = Effective half life in Wistar-Han rat at 1 mg/kg, iv or 2 mg/kg, po administered as single dose; format: ADME, organism-based; conditions: in vivo, read-out: t1/2eff (converted)
[2] = Oral bioavailability in Wistar-Han rat at 2 mg/kg administered as single dose; format: ADME, organism-based; conditions: in vivo
[3] = test system: Rattus norvegicus; assay: Antidiabetic activity in Goto Kakizaki rats assessed as inhibition of blood glucose AUC at 1 mg/kg, po pretreated for 1 hr followed by dextrose challenge measured after 20 to 60 mins by OGTT method relative to control; format: functional
[4] = test system: Rattus norvegicus; assay: Antidiabetic activity in Goto Kakizaki rats assessed as inhibition of blood glucose AUC at 10 mg/kg, po pretreated for 1 hr followed by dextrose challenge measured after 20 to 60 mins by OGTT method relative to control; format: functional
[5] = test system: Rattus norvegicus; assay: Antidiabetic activity in Goto Kakizaki rats assessed as plasma concentration required for reduction in blood glucose excursion at 10 mg/kg, po pretreated for 1 hr followed by dextrose challenge measured 3 hrs post dose by OGTT; format: functional, organism-based
[6] = molecular target: Bile salt export pump (Homo sapiens, UniProt O95342); assay: Inhibition of human BSEP expressed in baculovirus infected Sf9 insect cell membrane vesicles assessed as reduction in ATP-dependent [3H]-taurocholic acid uptake; format: ADME
[7] = Effective half life in Beagle dog at 1 mg/kg, iv or 2 mg/kg, po administered as single dose; format: ADME, organism-based, Canis lupus familiaris; conditions: in vivo, read-out: t1/2eff (converted)
[8] = Fraction unbound in rhesus monkey plasma at 1 mg/kg, iv or 2 mg/kg, po administered as single dose; format: ADME, organism-based, Macaca mulatta
[9] = Intrinsic clearance in rhesus monkey hepatocytes; format: ADME, cell-based, Macaca mulatta, Hepatocyte; conditions: read-out: CLH
[10] = test system: Rattus norvegicus; assay: Toxicity in Wistar rat assessed as decrease in body weight at 200 mg/kg administered once daily for 4 days relative to control; format: organism-based; design: scale not given: the % may be the effect or the level left; conditions: in vivo, 96 h
[11] = AUC (0 to 24 hrs) in Wistar rat at 750 mg/kg administered once daily for 4 days; format: ADME, organism-based; design: dose 750 mg/kg, time < 24 hr; conditions: in vivo
[12] = test system: Rattus norvegicus; assay: Toxicity in Wistar rat assessed as change in cardiac troponin1 levels at 200 to 750 mg/kg administered once daily for 4 days; format: organism-based; conditions: in vivo, 96 h
[13] = Lipophilicity, log D of the compound at pH 7 at 100 uM by HPLC method; format: physicochemical; conditions: buffer
[14] = molecular target: T1, Free fatty acid receptor 4 (Homo sapiens, UniProt Q5NUL3); assay: Agonist activity at GPR120 (unknown origin); format: functional
T1 sequence (Q5NUL3 whole entry): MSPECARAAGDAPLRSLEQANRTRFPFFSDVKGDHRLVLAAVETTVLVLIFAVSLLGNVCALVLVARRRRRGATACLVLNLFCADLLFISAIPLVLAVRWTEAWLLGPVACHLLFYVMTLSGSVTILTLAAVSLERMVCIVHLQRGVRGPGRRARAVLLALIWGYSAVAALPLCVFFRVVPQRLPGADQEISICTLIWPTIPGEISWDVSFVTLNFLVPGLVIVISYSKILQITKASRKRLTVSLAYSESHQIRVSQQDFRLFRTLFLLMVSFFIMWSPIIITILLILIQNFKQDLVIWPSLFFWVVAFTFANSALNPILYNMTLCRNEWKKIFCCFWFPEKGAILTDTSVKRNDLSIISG

Chain of Bile salt export pump (O95342 whole entry): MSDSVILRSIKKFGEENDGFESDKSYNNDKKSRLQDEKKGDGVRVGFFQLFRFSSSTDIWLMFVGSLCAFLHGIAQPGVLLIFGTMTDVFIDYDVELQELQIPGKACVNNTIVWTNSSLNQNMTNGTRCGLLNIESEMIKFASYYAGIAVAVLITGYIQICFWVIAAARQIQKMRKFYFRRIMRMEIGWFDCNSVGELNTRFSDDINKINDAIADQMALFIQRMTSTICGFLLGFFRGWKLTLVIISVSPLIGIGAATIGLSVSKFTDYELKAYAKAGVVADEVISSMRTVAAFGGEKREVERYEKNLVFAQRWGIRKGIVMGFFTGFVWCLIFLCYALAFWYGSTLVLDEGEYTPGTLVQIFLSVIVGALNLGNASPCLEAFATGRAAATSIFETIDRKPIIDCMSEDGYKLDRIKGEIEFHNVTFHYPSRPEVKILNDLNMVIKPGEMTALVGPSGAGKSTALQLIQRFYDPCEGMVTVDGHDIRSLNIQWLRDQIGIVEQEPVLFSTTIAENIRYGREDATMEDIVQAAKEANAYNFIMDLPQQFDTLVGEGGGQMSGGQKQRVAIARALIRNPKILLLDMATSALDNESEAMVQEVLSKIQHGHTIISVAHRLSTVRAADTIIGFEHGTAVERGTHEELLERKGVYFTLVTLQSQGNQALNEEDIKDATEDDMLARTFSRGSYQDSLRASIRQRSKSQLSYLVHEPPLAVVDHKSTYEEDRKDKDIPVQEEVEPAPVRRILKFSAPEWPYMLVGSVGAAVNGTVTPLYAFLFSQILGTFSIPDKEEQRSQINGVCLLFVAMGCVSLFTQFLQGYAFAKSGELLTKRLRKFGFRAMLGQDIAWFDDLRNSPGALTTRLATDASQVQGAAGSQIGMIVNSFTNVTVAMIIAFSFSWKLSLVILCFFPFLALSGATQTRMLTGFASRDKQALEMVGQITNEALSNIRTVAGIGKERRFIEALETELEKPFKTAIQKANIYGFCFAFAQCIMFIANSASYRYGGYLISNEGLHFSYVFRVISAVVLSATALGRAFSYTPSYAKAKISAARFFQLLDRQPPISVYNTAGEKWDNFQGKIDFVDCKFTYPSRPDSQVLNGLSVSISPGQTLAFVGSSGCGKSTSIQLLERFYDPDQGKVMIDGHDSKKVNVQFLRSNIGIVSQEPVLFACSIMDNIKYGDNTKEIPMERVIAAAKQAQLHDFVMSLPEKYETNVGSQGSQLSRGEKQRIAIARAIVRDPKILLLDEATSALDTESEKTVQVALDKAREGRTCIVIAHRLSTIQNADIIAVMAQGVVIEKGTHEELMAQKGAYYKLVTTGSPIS

## COc1cc(-c2ccc([C@@H]3CCc4ccc([C@H](C5CC5)[C@H](C)C(=O)[O-])cc4O3)c(F)c2)ccn1.[Na+]
[1]
  half-life: 3.7 h
[2]
  bioavailability: 81%
[3]
  inhibition in vivo at 1 mg/kg: 95%
[4]
  inhibition in vivo at 10 mg/kg: 118%
[5]
  Cp: 4.9 µM
[6]
  IC50: 3.5 µM
[7]
  half-life: 6.9 h
[8]
  fraction unbound: 0.00071
[9]
  CLint scaled: 102 mL/min/kg
[10]
  Activity: 72%
[11]
  AUC at 24 h: 7350 µM·h
[12]
  Activity: Non-Toxic
[13]
  logD at 100 µM: 2.51
[14]
  EC50: > 10 µM
